Literature values, collected in PMC9516332 (Frontiers in Oncology, 2022).
Read-outs that look alike come from different tables or passages of the source.

Columns and labels:
Conditions in all cases: cited from earlier work
[1] = biological target: panel of 255 wild-type kinases (Homo sapiens, UniProt Q15208)
[2] = biological target: panel of 255 wild-type kinases (Homo sapiens, UniProt Q9NQU5)
[3] = biological target: panel of 255 wild-type kinases (Homo sapiens, UniProt P28482)
[4] = biological target: panel of 255 wild-type kinases (Homo sapiens, UniProt Q15759)
[5] = biological target: panel of 255 wild-type kinases (Homo sapiens, UniProt O75582)
[6] = biological target: T1, panel of 255 wild-type kinases (Homo sapiens, UniProt Q9H093)
T1 sequence (Q9H093 1-628): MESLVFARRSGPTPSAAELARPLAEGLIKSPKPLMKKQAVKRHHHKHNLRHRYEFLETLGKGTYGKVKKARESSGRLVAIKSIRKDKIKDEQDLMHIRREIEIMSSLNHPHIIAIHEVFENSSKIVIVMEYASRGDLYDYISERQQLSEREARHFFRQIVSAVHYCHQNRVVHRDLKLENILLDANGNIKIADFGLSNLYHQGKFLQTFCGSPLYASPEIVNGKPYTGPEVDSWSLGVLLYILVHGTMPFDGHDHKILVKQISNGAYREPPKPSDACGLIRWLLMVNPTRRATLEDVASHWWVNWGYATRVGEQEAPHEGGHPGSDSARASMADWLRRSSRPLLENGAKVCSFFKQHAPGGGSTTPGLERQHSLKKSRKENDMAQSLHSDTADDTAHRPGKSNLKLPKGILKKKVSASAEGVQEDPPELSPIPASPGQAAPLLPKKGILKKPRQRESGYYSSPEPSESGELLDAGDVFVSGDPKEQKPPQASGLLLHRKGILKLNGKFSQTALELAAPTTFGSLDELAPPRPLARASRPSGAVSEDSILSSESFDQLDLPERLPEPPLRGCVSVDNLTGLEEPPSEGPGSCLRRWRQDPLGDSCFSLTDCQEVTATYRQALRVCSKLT

[7] = biological target: panel of 255 wild-type kinases (Homo sapiens, UniProt P53355)
[8] = biological target: T2, panel of 255 wild-type kinases (Homo sapiens, UniProt Q96L34)
T2 sequence (Q96L34 1-752): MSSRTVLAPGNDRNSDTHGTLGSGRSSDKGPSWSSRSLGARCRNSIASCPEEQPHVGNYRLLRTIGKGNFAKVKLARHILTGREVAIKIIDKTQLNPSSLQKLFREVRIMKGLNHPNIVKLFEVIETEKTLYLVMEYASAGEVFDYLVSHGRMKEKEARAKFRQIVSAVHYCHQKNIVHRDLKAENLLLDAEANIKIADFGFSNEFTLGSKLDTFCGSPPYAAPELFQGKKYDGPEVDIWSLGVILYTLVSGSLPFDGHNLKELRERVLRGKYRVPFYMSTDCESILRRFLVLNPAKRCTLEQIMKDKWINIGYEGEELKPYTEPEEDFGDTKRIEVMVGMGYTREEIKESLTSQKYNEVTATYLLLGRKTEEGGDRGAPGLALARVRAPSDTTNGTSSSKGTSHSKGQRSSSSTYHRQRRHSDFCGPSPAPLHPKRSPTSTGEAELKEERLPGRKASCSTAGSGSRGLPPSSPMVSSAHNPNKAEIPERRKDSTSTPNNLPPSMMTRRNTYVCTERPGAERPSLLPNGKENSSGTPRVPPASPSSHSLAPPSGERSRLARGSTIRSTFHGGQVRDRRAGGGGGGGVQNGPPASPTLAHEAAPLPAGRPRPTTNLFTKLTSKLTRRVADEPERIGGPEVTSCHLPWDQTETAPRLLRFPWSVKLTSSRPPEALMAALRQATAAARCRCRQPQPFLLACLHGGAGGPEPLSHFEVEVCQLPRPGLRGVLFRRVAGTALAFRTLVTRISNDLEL

[9] = biological target: panel of 255 wild-type kinases (Homo sapiens, UniProt P48730)
[10] = NDR1, 1 µmol/L single concentration, ref DOI: 10.1158/1535-7163.MCT-18-0877
[11] = PAK6, 1 µmol/L single concentration, ref DOI: 10.1158/1535-7163.MCT-18-0877
[12] = kinase Erk2, 1 µmol/L single concentration, ref DOI: 10.1158/1535-7163.MCT-18-0877
[13] = p38β, 1 µmol/L single concentration, ref DOI: 10.1158/1535-7163.MCT-18-0877
[14] = MSK1, 1 µmol/L single concentration, ref DOI: 10.1158/1535-7163.MCT-18-0877
[15] = NuaK2, 1 µmol/L single concentration, ref DOI: 10.1158/1535-7163.MCT-18-0877
[16] = kinase DAPK1, 1 µmol/L single concentration, ref DOI: 10.1158/1535-7163.MCT-18-0877
[17] = MARK4, 1 µmol/L single concentration, ref DOI: 10.1158/1535-7163.MCT-18-0877
[18] = kinase CK1δ, 1 µmol/L single concentration, ref DOI: 10.1158/1535-7163.MCT-18-0877
[19] = NDR1, 1 µmol/L single concentration, ref DOI: 10.1371/journal.pone.0092146
[20] = PAK6, 1 µmol/L single concentration, ref DOI: 10.1371/journal.pone.0092146
[21] = kinase Erk2, 1 µmol/L single concentration, ref DOI: 10.1371/journal.pone.0092146
[22] = p38β, 1 µmol/L single concentration, ref DOI: 10.1371/journal.pone.0092146
[23] = NuaK2, 1 µmol/L single concentration, ref DOI: 10.1371/journal.pone.0092146
[24] = kinase DAPK1, 1 µmol/L single concentration, ref DOI: 10.1371/journal.pone.0092146
[25] = MARK4, 1 µmol/L single concentration, ref DOI: 10.1371/journal.pone.0092146
[26] = kinase CK1δ, 1 µmol/L single concentration, ref DOI: 10.1371/journal.pone.0092146
[27] = MSK1, 1 µmol/L single concentration, ref DOI: 10.1371/journal.pone.0092146

SMILES	%-inhibition, NDR1 [1, 10] [%]	%-inhibition, PAK6 [2, 11] [%]	%-inhibition at 1 µmol/L, Erk2 [3, 12] [%]	%-inhibition, p38β [4, 13] [%]	%-inhibition, MSK1 [5, 14] [%]	%-inhibition, NuaK2 [6, 15] [%]	%-inhibition at 1 µmol/L, DAPK1 [7, 16] [%]	%-inhibition, MARK4 [8, 17] [%]	%-inhibition at 1 µmol/L, CK1δ [9, 18] [%]	%-inhibition, NDR1 [1, 19] [%]	%-inhibition, PAK6 [2, 20] [%]	%-inhibition at 1 µmol/L, Erk2 [3, 21] [%]	%-inhibition, p38β [4, 22] [%]	%-inhibition, NuaK2 [6, 23] [%]	%-inhibition at 1 µmol/L, DAPK1 [7, 24] [%]	%-inhibition, MARK4 [8, 25] [%]	%-inhibition at 1 µmol/L, CK1δ [9, 26] [%]	other results
CC#CC(=O)N1CCC[C@H]1c1nc(-c2ccc(C(=O)Nc3ccccn3)cc2)c2c(N)nccn12 [acalabrutinib]	-6.32	-9	-2	-3	-8	3	-17	-15	2.76									
CCc1cc2c(cc1N1CCC(N3CCOCC3)CC1)C(C)(C)c1[nH]c3cc(C#N)ccc3c1C2=O [alectinib]	1.29	-8	1.1	0.144	0.0374	-1.06	58	-3	-5.53									
COc1cc(N2CCC(N3CCN(C)CC3)CC2)ccc1Nc1ncc(Cl)c(Nc2ccccc2P(C)(C)=O)n1 [brigatinib]																		%-inhibition, NDR1 [1]: 63%; %-inhibition, PAK6 [2]: 26%; %-inhibition at 1 µmol/L, Erk2 [3]: 10%; %-inhibition, p38β [4]: 3.38%; %-inhibition, MSK1 [5]: 23%; %-inhibition, NuaK2 [6]: 98%; %-inhibition at 1 µmol/L, DAPK1 [7]: 83%; %-inhibition, MARK4 [8]: 101%; %-inhibition at 1 µmol/L, CK1δ [9]: -3.62%
Cc1cc(Nc2ncc(Cl)c(Nc3ccccc3S(=O)(=O)C(C)C)n2)c(OC(C)C)cc1C1CCNCC1 [ceritinib]	15	18	57	2.35	-1.09	43	6	-2.63	-6									
O=C(c1ccc(F)c(F)c1Nc1ccc(I)cc1F)N1CC(O)([C@@H]2CCCCN2)C1 [cobimetinib]	2.53	2	-6.38	4	-3	-10	-4	-15	-2.63									
C[C@@H](Oc1cc(-c2cnn(C3CCNCC3)c2)cnc1N)c1c(Cl)ccc(F)c1Cl [crizotinib]										-1.48	3	-4.58	0.299	87	-4	51	9	%-inhibition, MSK1 [5]: -0.641%
CC(C)(C)c1nc(-c2cccc(NS(=O)(=O)c3c(F)cccc3F)c2F)c(-c2ccnc(N)n2)s1 [dabrafenib]										-0.891	9	-8	5.3	4.53	-0.54	-27	8.51	%-inhibition, MSK1 [5, 27]: 0.0759%
C=CC(=O)N1CCC[C@@H](n2nc(-c3ccc(Oc4ccccc4)cc3)c3c(N)ncnc32)C1 [ibrutinib]	2.65	9	-7	9	-1.18	6.37	-3.8	-14	7.46									
CO[C@@H]1[C@H](N(C)C(=O)c2ccccc2)C[C@H]2O[C@]1(C)n1c3ccccc3c3c4c(c5c6ccccc6n2c5c31)C(=O)NC4 [midostaurin]	31	52	2.14	1.19	88	99	57	101										%-inhibition at 1 µmol/L, CK1δ [9]: -2%
C=CC(=O)Nc1cc(Nc2nccc(-c3cn(C)c4ccccc34)n2)c(OC)cc1N(C)CCN(C)C [osimertinib]	13	7	-10	4.56	-0.561	4	29	-13	7.49									
CC(=O)Nc1cccc(-n2c(=O)n(C3CC3)c(=O)c3c(Nc4ccc(I)cc4F)n(C)c(=O)c(C)c32)c1 [trametinib]										-1.68	8	-5	2.31	9	-6	-15	0.365	%-inhibition, MSK1 [5, 27]: -0.531%
CCCS(=O)(=O)Nc1ccc(F)c(C(=O)c2c[nH]c3ncc(-c4ccc(Cl)cc4)cc23)c1F [vemurafenib]										-3.81	-7	-4.58	24	4.36	-0.115	3.78	-3	%-inhibition, MSK1 [5, 27]: 0.256%
